# Test results taken from US20130252930A1 (BIOMARIN PHARMACEUTICAL INC., priority 2010, published 2013).
# Where two headings read alike, the source gives them in different places.
# What was measured:
# [1] = target: T1, CYP17 (human testicular microsome) (Homo sapiens, UniProt P05093); test: CYP17 enzymatic assay (IC50) (Biological Example 4); format: biochemical
# T1 construct: using microsomal fraction from human testis (Celsis Cat #S00110) as the enzyme source; tissue Celsis S00110; host or cells: human testis microsomal fraction
# T1 sequence (P05093 1-508): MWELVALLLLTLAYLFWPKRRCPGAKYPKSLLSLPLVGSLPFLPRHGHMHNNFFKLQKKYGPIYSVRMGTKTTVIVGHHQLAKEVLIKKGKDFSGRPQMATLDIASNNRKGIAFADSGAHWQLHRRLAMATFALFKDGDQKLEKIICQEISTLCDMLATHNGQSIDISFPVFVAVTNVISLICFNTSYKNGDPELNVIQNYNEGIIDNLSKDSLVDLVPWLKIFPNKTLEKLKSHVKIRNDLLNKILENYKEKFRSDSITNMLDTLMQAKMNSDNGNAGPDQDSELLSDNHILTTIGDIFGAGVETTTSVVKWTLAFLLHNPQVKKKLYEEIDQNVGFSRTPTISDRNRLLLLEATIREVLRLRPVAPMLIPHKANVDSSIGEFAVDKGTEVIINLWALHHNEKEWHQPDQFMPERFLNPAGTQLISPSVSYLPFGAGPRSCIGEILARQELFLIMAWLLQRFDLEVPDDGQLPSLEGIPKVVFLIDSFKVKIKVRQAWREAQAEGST
# [2] = target: T1, CYP17 (human testicular microsome); test: CYP17 enzymatic assay (% inhibition at 10 nM), version 1 (Biological Example 5); format: biochemical; details: 10 nM compound, DHEA by ELISA, read-out: Biological Example No. 5: CYP17 percent inhibition at 10 nM (version 1)
# [3] = Rat liver microsome stability assay (Biological Example 8a); details: liver microsomes, pH 7.4
# [4] = Human liver microsome stability assay (Biological Example 8b); details: liver microsomes, pH 7.4
# CYP17 (H295R cells) = target: T2, CYP17 (H295R cells) (Homo sapiens, UniProt P05093); test: CYP17 cellular assay (IC50), testosterone in H295R cells (Biological Example 7); format: cell-based
# T2 construct: endogenous in cells; host or cells: H295R cells
# T2 sequence (P05093 1-508): T1 sequence (P05093 1-508)
# Summary of the method: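 H295R cells cultured 24 h, then exposed to compound at 100, 10, 1, 0.1 nM final in serum-free DMEM/F-12 with ITS+ and 0.1% methanol for 24 h at 37 °C. Medium testosterone measured by ELISA and plotted against compound concentration.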
# [5] = human testicular microsome, DHEA by ELISA, read-out: Biological Example No. 4: CYP17 enzymatic assay IC50
# [6] = H295R cells, testosterone by ELISA, 24 hours, read-out: Biological Example No. 7: CYP17 cellular assay IC50
Structure (SMILES),"IC50 [1, 5]",inhibition at 0.01 µM [2],half-life at 1 μM [3],half-life at 1 μM [4],IC50 (CYP17 (H295R cells); [6]),IC50 [1],IC50 (CYP17 (H295R cells))
"C[C@]12CC(=O)C[C@@H]1CC[C@@H]1[C@@H]2CC[C@]2(C)C(n3ccnc3)=CC[C@@H]12 [Compound 108, (3aS,3bS,5aS,8aS,8bR,10aS)-6-(1H-imidazol-1-yl)-3a,5a-dimethyl-3,3a,3b,4,5,5a,8,8a,8b,9,10,10a-dodecahydrodicyclopenta[a,f]naphthalen-2(1H)-one]",< 0.011 µM,> 80%,1 to 10 min,> 50 min,–,–,–
"C[C@]12CCOCC[C@@H]1CC[C@@H]1[C@@H]2CC[C@]2(C)C(c3cccnc3)=CC[C@@H]12 [Compound 120, 3-((5aS,5bS,7aS,10aS,10bR,12aS)-5a,7a-dimethyl-2,4,5,5a,5b,6,7,7a,10,10a,10b,11,12,12a-tetradecahydro-1H-cyclopenta[5,6]naphtho[1,2-d]oxepin-8-yl)pyridine]",< 0.011 µM,> 80%,1 to 10 min,–,–,–,–
"C[C@]12CCCOC[C@H]1CC[C@@H]1[C@@H]2CC[C@]2(C)C(c3cccnc3)=CC[C@@H]12 [Compound 121, 3-((5aR,5bS,7aS,10aS,10bR,12aS)-5a,7a-dimethyl-3,4,5,5a,5b,6,7,7a,10,10a,10b,11,12,12a-tetradecahydro-1H-cyclopenta[5,6]naphtho[2,1-c]oxepin-8-yl)pyridine]",< 0.011 µM,> 80%,1 to 10 min,–,–,–,–
"COc1cncc(C2=CC[C@H]3[C@@H]4CC[C@H]5CCOCC[C@]5(C)[C@H]4CC[C@]23C)c1 [Compound 122, 3-((5aS,5bS,7aS,10aS,10bR,12aS)-5a,7a-dimethyl-2,4,5,5a,5b,6,7,7a,10,10a,10b,11,12,12a-tetradecahydro-1H-cyclopenta[5,6]naphtho[1,2-d]oxepin-8-yl)-5-methoxypyridine]",< 0.011 µM,50 to 80%,1 to 10 min,–,–,–,–
"COc1cncc(C2=CC[C@H]3[C@@H]4CC[C@H]5COCCC[C@]5(C)[C@H]4CC[C@]23C)c1 [Compound 123, 3-((5aR,5bS,7aS,10aS,10bR,12aR)-5a,7a-dimethyl-3,4,5,5a,5b,6,7,7a,10,10a,10b,11,12,12a-tetradecahydro-1H-cyclopenta[5,6]naphtho[2,1-c]oxepin-8-yl)-5-methoxypyridine]",< 0.011 µM,50 to 80%,1 to 10 min,–,–,–,–
"CCOc1cncc(C2=CC[C@H]3[C@@H]4CC[C@H]5COCCC[C@]5(C)[C@H]4CC[C@]23C)c1 [Compound 125, 3-((5aR,5bS,7aS,10aS,10bR,12aR)-5a,7a-dimethyl-3,4,5,5a,5b,6,7,7a,10,10a,10b,11,12,12a-tetradecahydro-1H-cyclopenta[5,6]naphtho[2,1-c]oxepin-8-yl)-5-ethoxypyridine]",< 0.011 µM,50 to 80%,1 to 10 min,–,–,–,–
"Cc1cncc(C2=CC[C@H]3[C@@H]4CC[C@H]5COCCC[C@]5(C)[C@H]4CC[C@]23C)c1 [Compound 127, 3-((5aR,5bS,7aS,10aS,10bR,12aR)-5a,7a-dimethyl-3,4,5,5a,5b,6,7,7a,10,10a,10b,11,12,12a-tetradecahydro-1H-cyclopenta[5,6]naphtho[2,1-c]oxepin-8-yl)-5-methylpyridine]",< 0.011 µM,50 to 80%,1 to 10 min,–,–,–,–
C[C@]12CCNC(=O)C[C@@H]1CC[C@@H]1[C@@H]2CC[C@]2(C)C(n3ccnn3)=CC[C@@H]12 [Compound 137],< 0.011 µM,> 80%,10 to 60 min,> 50 min,< 0.015 µM,–,–
Cc1cn(C2=CC[C@H]3[C@@H]4CCC5=CC(=O)NCC[C@]5(C)[C@H]4CC[C@]23C)cn1 [Compound 154],< 0.011 µM,50 to 80%,10 to 60 min,–,–,–,–
"C[C@]12CC[C@H]3[C@@H](CC[C@H]4C[C@@H](O)CC[C@@]43C)C1=CC=C2n1ccnc1 [Compound 170, (5S,8R,9S,10S,13S)-17-(1H-imidazol-1-yl)-10,13-dimethyl-2,3,4,5,6,7,8,9,10,11,12,13-dodecahydro-1H-cyclopenta[a]phenanthren-3-ol]",–,> 80%,10 to 60 min,> 50 min,< 0.015 µM,< 0.011 µM,–
"C[C@]12CC[C@H]3[C@@H](CC[C@H]4C[C@@H](O)CC[C@@]43C)C1=CC=C2n1ccnn1 [Compound 176, (3S,8R,9S,10S,13S)-10,13-dimethyl-17-(1H-1,2,3-triazol-1-yl)-2,3,4,5,6,7,8,9,10,11,12,13-dodecahydro-1H-cyclopenta[a]phenanthren-3-ol]",–,–,1 to 10 min,–,–,> 0.025 µM,> 0.1 µM

# Continued, in another order:
"IC50 [1, 5]",inhibition at 0.01 µM [2],half-life at 1 μM [3],Structure (SMILES),half-life at 1 μM [4],IC50 (CYP17 (H295R cells); [6]),IC50 [1],IC50 (CYP17 (H295R cells))
< 0.011 µM,50 to 80%,1 to 10 min,"Cc1cncc(C2=CC[C@H]3[C@@H]4CCN5C(=O)CCCC[C@]5(C)[C@H]4CC[C@]23C)c1 [Compound 39, (11aR,13aS)-11a,13a-dimethyl-1-(5-methylpyridin-3-yl)-3b,4,5,8,9,10,11,11a,11b,12,13,13a-dodecahydro-3H-azepino[2,1-a]cyclopenta[f]isoquinolin-7(3aH)-one]",–,–,–,–
< 0.011 µM,> 80%,1 to 10 min,"COc1cncc(C2=CC[C@H]3[C@@H]4CCN5C(=O)CCCC[C@]5(C)[C@H]4CC[C@]23C)c1 [Compound 40, (11aR,13aS)-1-(5-methoxypyridin-3-yl)-11a,13a-dimethyl-3b,4,5,8,9,10,11,11a,11b,12,13,13a-dodecahydro-3H-azepino[2,1-a]cyclopenta[f]isoquinolin-7(3aH)-one]",–,–,–,–
< 0.011 µM,> 80%,1 to 10 min,"CCc1cncc(C2=CC[C@H]3[C@@H]4CCN5C(=O)CCCC[C@]5(C)[C@H]4CC[C@]23C)c1 [Compound 41, (11aR,13aS)-1-(5-ethylpyridin-3-yl)-11a,13a-dimethyl-3b,4,5,8,9,10,11,11a,11b,12,13,13a-dodecahydro-3H-azepino[2,1-a]cyclopenta[f]isoquinolin-7(3aH)-one]",–,–,–,–
< 0.011 µM,50 to 80%,10 to 60 min,"C[C@]12CCCCC[C@@H]1CC[C@@H]1[C@@H]2CC[C@]2(C)C(n3ccnc3)=CC[C@@H]12 [Compound 97, 1-((3aS,3bR,5aR,10aS,10bS,12aS)-10a,12a-dimethyl-3,3a,3b,4,5,5a,6,7,8,9,10,10a,10b,11,12,12a-hexadecahydrocyclohepta[a]cyclopenta[f]naphthalen-1-yl)-1H-imidazole]",–,–,–,–
< 0.011 µM,50 to 80%,1 to 10 min,"CN1C(=O)COC[C@@]2(C)C1CC[C@@H]1[C@@H]2CC[C@]2(C)C(c3cccnc3)=CC[C@@H]12 (stereo partly drawn) [Compound 98, (5aR,5bS,7aS,10aS,10bS)-1,5a,7a-trimethyl-8-(pyridin-3-yl)-5,5a,5b,6,7,7a,10,10a,10b,11,12,12a-dodecahydro-1H-cyclopenta[5,6]naphtho[2,1-e][1,4]oxazepin-2(3H)-one]",–,–,–,–
